Measured values reported in ChEMBL document CHEMBL1777681, “Structure and activity relationships of tartrate-based TACE inhibitors” (Bioorg Med Chem Lett, 2010).
pKi: −log10 of the molar value.

What was measured:
[1] = molecular target: T1, Disintegrin and metalloproteinase domain-containing protein 17 (Homo sapiens, UniProt P78536); experiment: Inhibition of TACE
[2] = molecular target: T1, Disintegrin and metalloproteinase domain-containing protein 17; experiment: Inhibition of TACE at 500 nM
[3] = molecular target: T2, Disintegrin and metalloproteinase domain-containing protein 10 (Homo sapiens, UniProt O14672); experiment: Inhibition of ADAM10
T2 sequence (O14672 whole entry): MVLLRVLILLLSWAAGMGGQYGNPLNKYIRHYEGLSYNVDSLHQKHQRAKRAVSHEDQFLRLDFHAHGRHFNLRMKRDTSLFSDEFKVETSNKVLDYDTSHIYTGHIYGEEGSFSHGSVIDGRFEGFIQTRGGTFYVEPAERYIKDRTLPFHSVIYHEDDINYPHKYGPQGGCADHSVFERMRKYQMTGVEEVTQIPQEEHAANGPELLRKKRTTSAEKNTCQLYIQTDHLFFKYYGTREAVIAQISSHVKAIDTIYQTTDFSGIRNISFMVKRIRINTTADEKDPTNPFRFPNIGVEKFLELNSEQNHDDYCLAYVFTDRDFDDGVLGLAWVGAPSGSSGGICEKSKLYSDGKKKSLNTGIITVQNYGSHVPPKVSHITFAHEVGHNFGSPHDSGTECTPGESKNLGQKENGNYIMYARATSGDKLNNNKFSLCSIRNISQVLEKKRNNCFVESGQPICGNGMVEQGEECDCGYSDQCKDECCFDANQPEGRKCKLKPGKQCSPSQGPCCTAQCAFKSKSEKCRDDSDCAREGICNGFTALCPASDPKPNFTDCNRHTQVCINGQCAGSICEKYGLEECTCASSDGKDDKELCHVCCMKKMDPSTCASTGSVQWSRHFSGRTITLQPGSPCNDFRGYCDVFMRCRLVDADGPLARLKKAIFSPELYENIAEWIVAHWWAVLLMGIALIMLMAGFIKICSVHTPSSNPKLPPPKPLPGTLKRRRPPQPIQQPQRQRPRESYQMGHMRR

Interstitial collagenase = molecular target: T3, Interstitial collagenase (Homo sapiens, UniProt P03956); experiment: Inhibition of MMP1
T3 sequence (P03956 whole entry): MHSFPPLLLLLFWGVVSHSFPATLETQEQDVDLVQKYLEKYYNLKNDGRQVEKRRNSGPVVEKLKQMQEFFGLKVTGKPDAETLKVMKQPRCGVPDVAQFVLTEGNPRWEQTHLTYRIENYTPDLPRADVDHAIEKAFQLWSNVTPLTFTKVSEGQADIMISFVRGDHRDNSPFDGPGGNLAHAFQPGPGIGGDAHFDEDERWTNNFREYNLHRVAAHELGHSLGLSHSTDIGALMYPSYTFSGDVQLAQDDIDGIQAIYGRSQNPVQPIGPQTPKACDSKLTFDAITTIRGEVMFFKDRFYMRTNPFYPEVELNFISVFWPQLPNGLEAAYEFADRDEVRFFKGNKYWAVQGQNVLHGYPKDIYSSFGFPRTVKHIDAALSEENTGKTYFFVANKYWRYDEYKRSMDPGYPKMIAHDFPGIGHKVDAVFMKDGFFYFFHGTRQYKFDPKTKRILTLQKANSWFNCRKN

[4] = molecular target: 72 kDa type IV collagenase (Homo sapiens, UniProt P08253); experiment: Inhibition of MMP2
Sequence of 72 kDa type IV collagenase (P08253 whole entry): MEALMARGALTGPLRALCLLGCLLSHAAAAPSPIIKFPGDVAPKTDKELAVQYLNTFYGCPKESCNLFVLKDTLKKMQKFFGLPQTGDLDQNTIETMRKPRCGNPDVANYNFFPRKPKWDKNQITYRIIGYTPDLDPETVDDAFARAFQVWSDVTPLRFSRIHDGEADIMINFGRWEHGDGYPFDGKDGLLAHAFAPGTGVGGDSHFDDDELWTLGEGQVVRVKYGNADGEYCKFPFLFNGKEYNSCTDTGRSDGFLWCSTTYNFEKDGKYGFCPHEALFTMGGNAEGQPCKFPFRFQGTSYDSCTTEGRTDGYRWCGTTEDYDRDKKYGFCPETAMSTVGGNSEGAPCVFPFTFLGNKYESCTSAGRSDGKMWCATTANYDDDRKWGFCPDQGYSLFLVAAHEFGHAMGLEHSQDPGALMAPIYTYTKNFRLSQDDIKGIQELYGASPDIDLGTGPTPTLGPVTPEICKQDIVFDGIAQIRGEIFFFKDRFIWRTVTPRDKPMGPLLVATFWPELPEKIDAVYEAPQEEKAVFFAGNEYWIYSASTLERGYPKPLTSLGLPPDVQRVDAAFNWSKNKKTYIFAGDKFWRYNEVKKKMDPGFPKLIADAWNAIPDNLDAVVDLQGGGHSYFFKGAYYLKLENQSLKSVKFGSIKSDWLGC

Stromelysin-1 = Stromelysin-1 (Homo sapiens, UniProt P08254); experiment: Inhibition of MMP3
Sequence of Stromelysin-1 (P08254 whole entry): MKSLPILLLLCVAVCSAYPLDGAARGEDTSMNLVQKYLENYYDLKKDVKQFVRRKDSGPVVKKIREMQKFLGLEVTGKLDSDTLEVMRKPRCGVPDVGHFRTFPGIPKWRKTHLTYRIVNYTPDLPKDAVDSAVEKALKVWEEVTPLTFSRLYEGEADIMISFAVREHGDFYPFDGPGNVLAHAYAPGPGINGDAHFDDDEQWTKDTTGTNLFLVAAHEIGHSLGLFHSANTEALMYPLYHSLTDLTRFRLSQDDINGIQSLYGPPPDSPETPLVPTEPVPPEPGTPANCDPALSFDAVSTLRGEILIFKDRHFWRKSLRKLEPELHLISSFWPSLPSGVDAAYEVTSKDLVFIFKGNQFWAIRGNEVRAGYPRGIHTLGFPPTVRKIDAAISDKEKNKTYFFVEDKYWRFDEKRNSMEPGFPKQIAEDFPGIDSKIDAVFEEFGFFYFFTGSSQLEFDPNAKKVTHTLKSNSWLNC

Matrilysin = molecular target: T4, Matrilysin (Homo sapiens, UniProt P09237); experiment: Inhibition of MMP7
T4 sequence (P09237 whole entry): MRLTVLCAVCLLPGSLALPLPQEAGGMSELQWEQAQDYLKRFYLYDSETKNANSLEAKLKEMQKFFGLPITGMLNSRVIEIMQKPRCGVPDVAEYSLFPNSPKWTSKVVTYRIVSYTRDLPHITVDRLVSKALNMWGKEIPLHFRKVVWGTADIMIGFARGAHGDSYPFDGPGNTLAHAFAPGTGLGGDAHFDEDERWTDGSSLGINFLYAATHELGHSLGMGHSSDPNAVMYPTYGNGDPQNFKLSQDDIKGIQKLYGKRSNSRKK

[5] = molecular target: Matrix metalloproteinase-9 (Homo sapiens, UniProt P14780); experiment: Inhibition of MMP9
Sequence of Matrix metalloproteinase-9 (P14780 whole entry): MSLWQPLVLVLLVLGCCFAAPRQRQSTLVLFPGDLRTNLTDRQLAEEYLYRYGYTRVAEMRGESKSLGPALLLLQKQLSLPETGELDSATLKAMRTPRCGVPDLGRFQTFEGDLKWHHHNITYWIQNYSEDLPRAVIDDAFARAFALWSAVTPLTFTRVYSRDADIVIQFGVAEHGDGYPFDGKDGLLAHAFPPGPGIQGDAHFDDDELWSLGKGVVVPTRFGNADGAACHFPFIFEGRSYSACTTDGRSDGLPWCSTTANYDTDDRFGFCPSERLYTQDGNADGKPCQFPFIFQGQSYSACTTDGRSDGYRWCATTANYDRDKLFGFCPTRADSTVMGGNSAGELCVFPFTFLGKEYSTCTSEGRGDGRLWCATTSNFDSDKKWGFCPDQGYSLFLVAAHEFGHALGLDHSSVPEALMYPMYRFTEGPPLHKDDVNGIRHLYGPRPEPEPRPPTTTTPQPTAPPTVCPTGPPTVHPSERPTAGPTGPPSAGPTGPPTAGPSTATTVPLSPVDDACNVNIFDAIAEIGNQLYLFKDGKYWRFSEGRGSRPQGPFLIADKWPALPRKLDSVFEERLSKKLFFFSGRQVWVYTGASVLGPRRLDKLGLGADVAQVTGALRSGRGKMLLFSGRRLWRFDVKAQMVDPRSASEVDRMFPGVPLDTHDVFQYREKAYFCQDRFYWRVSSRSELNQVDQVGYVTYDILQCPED

Collagenase 3 = Collagenase 3 (Homo sapiens, UniProt P45452); experiment: Inhibition of MMP13
[6] = molecular target: Matrix metalloproteinase-14 (Homo sapiens, UniProt P50281); experiment: Inhibition of MMP14
[7] = Clearance in Sprague-Dawley rat at 3 mg/kg, iv; assay type: ADME, organism-based; parameters: dose 3 mg/kg, route intravenous; settings: in vivo
[8] = AUC in Sprague-Dawley rat at 3 mg/kg, iv; assay type: ADME, organism-based; parameters: dose 3 mg/kg, route intravenous; settings: plasma
[9] = Half life in Sprague-Dawley rat at 10 mg/kg, po; assay type: ADME, organism-based; parameters: dose 10 mg/kg, route oral; settings: in vivo
[10] = AUC in Sprague-Dawley rat at 10 mg/kg, po; assay type: ADME, organism-based; parameters: dose 10 mg/kg, route oral; settings: plasma
[11] = Bioavailability in Sprague-Dawley rat at 10 mg/kg, po; assay type: ADME, organism-based; settings: in vivo

T1 sequence (P78536 whole entry, the tested form may be a part): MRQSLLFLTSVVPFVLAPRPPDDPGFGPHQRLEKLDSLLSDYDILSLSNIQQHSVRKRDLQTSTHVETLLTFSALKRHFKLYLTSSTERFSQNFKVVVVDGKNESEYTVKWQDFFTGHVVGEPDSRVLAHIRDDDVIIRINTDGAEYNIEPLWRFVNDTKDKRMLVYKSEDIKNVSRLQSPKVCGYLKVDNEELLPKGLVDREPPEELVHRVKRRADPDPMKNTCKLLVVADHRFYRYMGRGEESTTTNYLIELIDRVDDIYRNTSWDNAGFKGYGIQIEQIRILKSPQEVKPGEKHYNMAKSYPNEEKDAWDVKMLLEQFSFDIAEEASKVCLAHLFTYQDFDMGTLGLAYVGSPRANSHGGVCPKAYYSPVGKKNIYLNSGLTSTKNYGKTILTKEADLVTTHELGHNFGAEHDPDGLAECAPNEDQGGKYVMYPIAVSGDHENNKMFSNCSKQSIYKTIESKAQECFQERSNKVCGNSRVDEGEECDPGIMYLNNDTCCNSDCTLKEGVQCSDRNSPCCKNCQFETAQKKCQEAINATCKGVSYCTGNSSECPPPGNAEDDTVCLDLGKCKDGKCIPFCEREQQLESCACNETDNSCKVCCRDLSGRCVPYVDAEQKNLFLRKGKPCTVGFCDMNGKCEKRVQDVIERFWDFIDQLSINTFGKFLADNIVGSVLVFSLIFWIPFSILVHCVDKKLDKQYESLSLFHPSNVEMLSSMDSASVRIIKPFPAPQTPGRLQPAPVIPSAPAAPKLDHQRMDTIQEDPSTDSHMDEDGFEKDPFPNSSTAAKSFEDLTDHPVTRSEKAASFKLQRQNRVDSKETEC

| Compound | pKi [1] | further results |
| --- | --- | --- |
| O=C(NCc1ccc(Cc2cccc(Cl)c2)s1)[C@H](O)[C@@H](O)C(=O)N1CCC[C@@H]1c1cccc(Cl)c1 | 7.32 | – |
| N#Cc1cnccc1-c1ccc(CNC(=O)[C@H](O)[C@@H](O)C(=O)N2CCC[C@@H]2c2ccccc2)cc1 | 8.30 | – |
| O=C(NCc1cccs1)[C@H](O)[C@@H](O)C(=O)N1CCCC1c1cccc(Cl)c1 (stereo partly specified) | – | inhibition [2]: 44% |
| Cc1nc2ccccc2n1Cc1ccc(CNC(=O)[C@H](O)[C@@H](O)C(=O)N2CCC[C@@H]2c2cccc(Cl)c2)s1 | 8.40 | – |
| O=C(NCc1ccc(-c2cccnc2)cc1)[C@H](O)[C@@H](O)C(=O)N1CCC[C@@H]1c1ccccc1 | 7.44 | – |
| O=C(NCc1ccc(Cc2cccc3ccccc23)s1)[C@H](O)[C@@H](O)C(=O)N1CCC[C@@H]1c1cccc(Cl)c1 | – | inhibition [2]: 50% |
| O=C(NCc1ccc(-c2ccsc2)cc1)[C@H](O)[C@@H](O)C(=O)N1CCC[C@@H]1c1ccccc1 | 7.89 | – |
| COc1ccccc1Cc1ccc(CNC(=O)[C@H](O)[C@@H](O)C(=O)N2CCC[C@@H]2c2cccc(Cl)c2)s1 | 8.52 | – |
| O=C(NCc1ccc(Cn2ccnc2)s1)[C@H](O)[C@@H](O)C(=O)N1CCC[C@@H]1c1cccc(Cl)c1 | 7.43 | – |
| N#Cc1ccccc1N1CC2C(CNC(=O)[C@H](O)[C@@H](O)C(=O)N3CCC[C@@H]3c3ccccc3)C2C1 (stereo partly specified) | 7.92 | – |
| O=C(NCc1cc(Cc2ccccc2)cs1)[C@H](O)[C@@H](O)C(=O)N1CCCC1c1cccc(Cl)c1 (stereo partly specified) | 7.35 | – |
| O=C(NCc1ccc(-n2cccn2)cc1)[C@H](O)[C@@H](O)C(=O)N1CCCC1c1cccc(Cl)c1 (mixture of isomers) | 8.40 | pKi [3]: 6.22; pKi (Interstitial collagenase): < 4.00; pKi [4]: 5.72; pKi (Stromelysin-1): 4.72; pKi (Matrilysin): 4.33; pKi [5]: 4.96; pKi (Collagenase 3): 5.46; pKi [6]: 6.92 |
| O=C(NCc1ccc(Cc2ccc(Cl)cc2)s1)[C@H](O)[C@@H](O)C(=O)N1CCC[C@@H]1c1cccc(Cl)c1 | 7.43 | – |
| Cc1nc2ccccc2n1Cc1ccc(CNC(=O)[C@H](O)[C@@H](O)C(=O)N2CCCC2c2cccs2)s1 (mixture of isomers) | 8.40 | – |
| Cc1nc2ccccc2n1Cc1ccc(CNC(=O)[C@H](O)[C@@H](O)C(=O)N2CCC[C@@H]2c2csc(N)n2)s1 | 8.70 | – |
| O=C(NCc1ccc(Cc2ccsc2)s1)[C@H](O)[C@@H](O)C(=O)N1CCC[C@@H]1c1cccc(Cl)c1 | 7.96 | – |
| O=C(NCc1ccc(-c2ccncc2)cc1)[C@H](O)[C@@H](O)C(=O)N1CCC[C@@H]1c1ccccc1 | 7.82 | – |
| O=C(NCc1ccc(-c2ccccc2)cn1)[C@H](O)[C@@H](O)C(=O)N1CCCC1c1cccc(Cl)c1 (mixture of isomers) | 8.22 | – |
| O=C(NCc1ccc(-c2ccon2)cc1)[C@H](O)[C@@H](O)C(=O)N1CCC[C@@H]1c1ccccc1 | 8.10 | – |
| O=C(NCc1ccc(-c2ccccc2)cc1)[C@H](O)[C@@H](O)C(=O)N1CCC[C@@H]1c1ccccc1 | 7.66 | – |
| O=C(NCc1ccc(-n2ccnc2)cc1)[C@H](O)[C@@H](O)C(=O)N1CCCC1c1cccc(Cl)c1 (mixture of isomers) | 6.57 | – |

| Compound | pKi [1] | further results |
| --- | --- | --- |
| O=C(NCc1ccc(Cn2c(C(F)(F)F)nc3ccccc32)s1)[C@H](O)[C@@H](O)C(=O)N1Cc2ccccc2C1 | 9.70 | – |
| O=C(NCc1ccc(-c2nccs2)cc1)[C@H](O)[C@@H](O)C(=O)N1CCCC1c1cccc(Cl)c1 (mixture of isomers) | 7.13 | – |
| Cc1nc2ccccc2n1Cc1ccc(CNC(=O)[C@H](O)[C@@H](O)C(=O)N2CCCC2c2ccccn2)s1 (mixture of isomers) | 8.10 | – |
| O=C(NCc1ccc(-c2cccs2)cc1)[C@H](O)[C@@H](O)C(=O)N1CCC[C@@H]1c1ccccc1 | 7.55 | – |
| N#Cc1ccccc1N1CCC(CNC(=O)[C@H](O)[C@@H](O)C(=O)N2CCCC2c2cccc(Cl)c2)CC1 (mixture of isomers) | 8.40 | – |
| C[C@@H]1CN(c2ccccc2C#N)CCC1CNC(=O)[C@H](O)[C@@H](O)C(=O)N1CCC[C@@H]1c1ccccc1 (stereo partly specified) | 8.70 | – |
| O=C(NCc1ccc(Cc2ccccc2Cl)s1)[C@H](O)[C@@H](O)C(=O)N1CCC[C@@H]1c1cccc(Cl)c1 | 8.03 | – |
| O=C(NCc1ccc(Cc2ccccc2)s1)[C@H](O)[C@@H](O)C(=O)N1CCC[C@@H]1c1cccc(Cl)c1 | 7.70 | – |
| O=C(NCc1ccc(-c2ccccc2)nc1)[C@H](O)[C@@H](O)C(=O)N1CCCC1c1cccc(Cl)c1 (mixture of isomers) | 6.51 | – |
| Cc1nc2ccccc2n1Cc1ccc(CNC(=O)[C@H](O)[C@@H](O)C(=O)N2CCCC2c2cccnc2)s1 (mixture of isomers) | 7.92 | – |
| O=C(NCc1ccc(-c2csnn2)cc1)[C@H](O)[C@@H](O)C(=O)N1CCCC1c1cccc(Cl)c1 (mixture of isomers) | 8.52 | – |
| N#Cc1sccc1-c1ccc(CNC(=O)[C@H](O)[C@@H](O)C(=O)N2CCC[C@@H]2c2ccccc2)cc1 | 8.70 | – |
| C[C@@H](NC(=O)[C@H](O)[C@@H](O)C(=O)N1CCC[C@@H]1c1cccc(Cl)c1)c1ccc(-n2cccn2)cc1 | 9.07 | clearance [7]: 35 mL/min/kg; AUC [8]: 3.1 µM·h; half-life [9]: 36 min; AUC [10]: 2.1 µM·h; bioavailability [11]: 20%; pKi [3]: 6.78; pKi (Interstitial collagenase): < 4.00; pKi [4]: 4.36; pKi (Matrilysin): 5.42; pKi [5]: 4.05; pKi (Collagenase 3): 5.48; pKi [6]: 5.96 |
| Cc1nc2ccccc2n1Cc1ccc(CNC(=O)[C@H](O)[C@@H](O)C(=O)N2Cc3ccccc3C2)s1 | 9.30 | – |
| N#Cc1ccccc1-c1ccc(CNC(=O)[C@H](O)[C@@H](O)C(=O)N2CCC[C@@H]2c2ccccc2)cc1 | 7.77 | – |
| C[C@H]1CN(c2ccccc2C#N)CCC1CNC(=O)[C@H](O)[C@@H](O)C(=O)N1CCC[C@@H]1c1ccccc1 (stereo partly specified) | 6.50 | – |
| Cc1nc2ccccc2n1-c1ccc(CNC(=O)[C@H](O)[C@@H](O)C(=O)N2CCCC2c2cccc(Cl)c2)cc1 (mixture of isomers) | 6.53 | – |
| O=C(NCc1ccc(-c2cscn2)cc1)[C@H](O)[C@@H](O)C(=O)N1CCCC1c1cccc(Cl)c1 (mixture of isomers) | 7.74 | – |
| Cc1nc2ccccc2n1Cc1ccc(CNC(=O)[C@H](O)[C@@H](O)C(=O)N2CCCC2c2ccncc2)s1 (mixture of isomers) | 7.44 | – |
| Cc1nc2ccccc2n1Cc1ccc(CNC(=O)[C@H](O)[C@@H](O)C(=O)N2CCCC2c2nccs2)s1 (mixture of isomers) | 8.05 | – |
